One assay has as its target RNA aptamer J6f1, D-RNA. Kind of assay: Fluorescence anisotropy binding, D-J6f1 tobramycin binding aptamer. The source says: (§1) Experiments were designed to probe the stereospecificity of aminoglycoside binding to the RNA constructs shown in FIG. 9 because these small rRNA constructs mimic ribosomal decoding region RNA function. The three constructs shown include a bacterial 16S A-site rRNA construct (B) (27), its human counterpart (H), and an RNA aptamer (J6f1) selected to bind to the aminoglycoside tobramycin (12,15,16).
(§2) L-aminoglycoside binding to D-RNA sequences are energetically equivalent to binding the enantiotopic D-aminoglycoside to an L-RNA sequence. Initial binding experiments were carried out using enantiomerically pure L-RNA constructs, B, H, and J6f1 (FIG. 9A-C) and D-aminoglycoside compounds. Circular dichroism spectra of the purified constructs confirm the enantiomeric relationship of the corresponding D-RNA and L-RNA constructs (FIGS. 1A-C). The constructs were tested for aminoglycoside binding using the fluorescence anisotropy method described in Example 4. In these measurements, the fluorescent aminoglycoside CRP bearing a rhodamine chromaphore is used to monitor binding to the decoding region constructs (B and H) and fluorescent aminoglycoside CRT bearing a rhodamine chromaphore was used to monitor binding to RNA construct J6f1 (FIG. 9C). See, for example, Wang, Y. and Rando, R. R. Chem. Biol. (1995) 2, 281-290; Hamasaki, K., Killian, J. Cho, J., and Rando, R. R. Biochemistry (1998) 37, 656-663; and Cho, J. and Rando, R. R. (1999) Biochemistry 38, 8548-8554.
(§3) 5-Carboxytetramethylrhodamine-labeled paromomycin (CRP) and tobramycin (CRT) concentrations were determined spectroscopically at 550 nm using a molar extinction coefficient of 6.00×10 4 M −1 cm −1. Fluorescence anisotropy measurements were performed on a Perkin-Elmer LS-50B luminescence spectrometer equipped with a thermostat accurate to ±0.1° C. as indicated previously (Wang, Y., Hamasaki, K., & Rando, R. R. (1997) Biochemistry 36, 768-779). The tracer solution was excited at 550 nm and monitored at 580 nm. The integration time was 5 s. […]
(§4) Equation 1 was used for the determination of the dissociation constant (Kd) for the interactions between RNA or ribosome and CRP. A=A0+DA{(RNA)0+(CRP)0+Kd−({(RNA)0+(CRP)0+Kd}^2−4(RNA)0(CRP)0)½}/2 where A and A0 are the fluorescence anisotropy of CRP in the presence and absence of RNA, respectively, and DA is the difference between the fluorescence anisotropy of CRP in the presence of an extrapolated infinite concentration of RNA minus the fluorescence anisotropy in the absence of RNA. […]
(§5) Equation 2 is used for the calculation of the KD values in the competition binding assay. […] Both Kd and KD were determined by non-linear curve fitting using the equations described above, and are presented as mean values of three independent measurements.
Background: Polarisation of emitted light reports the rotation of a fluorescent probe.

Another assay addresses RNA aptamer J6f1, L-RNA. In words: Fluorescence anisotropy binding, L-J6f1 tobramycin binding aptamer.
Source text: as §1, §2
(§6) 5-Carboxytetramethylrhodamine-labeled paromomycin (CRP) and tobramycin (CRT) concentrations were determined spectroscopically at 550 nm using a molar extinction coefficient of 6.00×10 4 M −1 cm −1. Fluorescence anisotropy measurements were performed on a Perkin-Elmer LS-50B luminescence spectrometer equipped with a thermostat accurate to ±0.1° C. as indicated previously (Wang, Y., Hamasaki, K., & Rando, R. R. (1997) Biochemistry 36, 768-779). The tracer solution was excited at 550 nm and monitored at 580 nm. The integration time was 5 s. For every point, 6 measurements were taken, and their average values were used for calculation. Measurements were carried out in a buffer solution containing 150 mM NaCl, 5 mM KCl, 1 mM CaCl2, 1 mM MgCl2, and 20 mM HEPES (pH 7.5). Prior to measurements, RNA constructs were renatured by incubating in binding buffer {150 mM NaCl, 5 mM KCl, 1 mM CaCl2, 1 mM MgCl2, and 20 mM HEPES (pH 7.5)} for 3 minutes at 90° C. followed by slow cooling to 25° C.
(§7) Equation 1 was used for the determination of the dissociation constant (Kd) for the interactions between RNA or ribosome and CRP. A=A0+DA{(RNA)0+(CRP)0+Kd−({(RNA)0+(CRP)0+Kd}^2−4(RNA)0(CRP)0)½}/2 where A and A0 are the fluorescence anisotropy of CRP in the presence and absence of RNA, respectively, and DA is the difference between the fluorescence anisotropy of CRP in the presence of an extrapolated infinite concentration of RNA minus the fluorescence anisotropy in the absence of RNA. (RNA)0 and (CRP)0 are the initial concentrations of RNA and CRP, respectively.
as §5

The target of the next assay is 70S ribosome. In words: Fluorescence anisotropy binding to 70S ribosomes. As to conditions: E. coli ribosomes. Here is the method: (§8) After establishing the lack of stereospecificity in the binding of aminoglycosides to the A-site RNA constructs (FIG. 9A-C) where the binding affinity, KD, is about 0.1 μM to about 100 μM, the stereospecificity of aminoglycoside binding to intact ribosomes was determined. Both yeast and E. coli ribosomes were prepared and aminoglycoside binding was measured using fluorescence anisotropy methods. For example, fluorescence anisotropy methods recited in Wang, Y., and Rando, R. R. Chem. Biol. (1995) 2, 281-290; and Wang, Y., Hamasaki, K., and Rando, R. R. Biochemistry (1997) 36,768-779. CRP was used as the binding probe. […] Binding data reported herein for aminoglycoside compounds with eukaryotic yeast ribosomes are similar to binding data for said aminoglycoside compounds with ribosoimes in bacteria and with eukaryotic A-site rRNA constructs.
as §6, §7
(§9) Equation 2 is used for the calculation of the KD values in the competition binding assay. (aminoglycoside)0={KD(A−−A)/Kd(A−A0)+1}{(RNA)0−Kd(A−A0)/(A−−A)−(CRP)0(A−A0)/(A−−A)} where KD is the dissociation constant between the RNA and the aminoglycosides; (aminoglycoside)0 is the initial concentration of the aminoglycosides; AL is anisotropy of completely bound tracer. Both Kd and KD were determined by non-linear curve fitting using the equations described above, and are presented as mean values of three independent measurements.
The purification of E. coli (E600) 70S ribosomes was carried out according to the published procedure (Lazaro, E., van den Broek, L. A. G. M., Felix, A. S., Ottenheijm, H. C. J., Ballesta, J. P. G. (1991) Biochemistry 30, 9642-9648). E. coli MRE600 were grown for 12 h in 6L of LB medium (10 g trypton, 5 g yeast extract, 5 g NaCl per 1 L, pH 7.0) at 37° C. Crude ribosomes were precipitated from clarified supernatant by 4 h centrifugation at 25,000 rpm in Beckman SW 28 rotor at 4° C. The ribosome pellets were collected in 5 mL of buffer BR1, containing 10 mM HEPES, pH 7.5, 500 mM ammonium acetate, 100 mM magnesium chloride and 2.5 mM DTT. The ribosome suspension was centrifuged for 20 min at 15000 rpm to be clarified. The clarified sample was loaded over two layers of 20% and 40% sucrose in buffer BR1 and centrifuged for 18 hr at 19000 rpm in Beckman SW28 rotor at 4° C. […]

For the next assay, the target named is 80S ribosome. Kind of assay: Fluorescence anisotropy binding to 80S ribosomes. Also on record: species or system yeast (S. cerevisiae). To be noted: yeast ribosomes. The method, then:
as §8, §6, §7, §9
The purification of yeast 80S ribosomes from S. cerevisiae strain YSB 758 was carried out according to the published procedure (Verschoor, A., Warner, J. R., Srivastava, S., Grassucci, R. A., & Frank, J. (1997) Nucl. Acid Res. 26, 655-661). S. cerevisiea YSB 758 were grown for 12 hrs at 30° C. in 2L of YPD medium, containing: 20 g bacto peptone, 20 g glucose, 10 g yeast extract and 0.15 g tryptophan per 1 L, pH 7.0. The cells were lysed by 5-10 cycles of 1 min vigorous shaking with glass beads with a vortex, followed by cooling on ice. Clarified cell extract (about 9 mL total, used in 6 portions in 1.5 mL aliqouts) was carefully loaded on top of 2 mL of a cushion, composed of 10% sucrose and 5% ammonium sulfate dissolved in buffer YR1 (20 mM HEPES pH=7.4, 16 mM magnesium chloride, 100 mM potassium chloride, 5 mM DTT, and 0.5 mM EDTA). The ribosomes were collected by centrifugation in Beckman TL100.3 rotor at 75000 rpm for 3 h. The supernatants were carefully discarded and ribosomes were collected in buffer YR1. […]

In assay [1] the target is bacterial 16S A-site rRNA construct (B), D-RNA. Kind of assay: Fluorescence anisotropy binding, D-RNA bacterial A-site decoding region construct B.
Source text: as §1, §2, §3, §4, §5

Assay [2] has as its target bacterial 16S A-site rRNA construct (B), L-RNA. In words: Fluorescence anisotropy binding, L-RNA bacterial A-site decoding region construct B.
Source text: as §1, §2, §3, §4, §5

In assay [3] the target is human A-site decoding region construct (H), D-RNA. Kind of assay: Fluorescence anisotropy binding, D-RNA human A-site decoding region construct H.
Source text: as §1, §2, §3, §4, §5

Assay [4] addresses human A-site decoding region construct (H), L-RNA. Kind of assay: Fluorescence anisotropy binding, L-RNA human A-site decoding region construct H.
Source text: as §1, §2, §3, §4, §5

The mark [5] stands for this setting: competition with CRP, read-out: Dissociation constant (KD) with 70S ribosome.
Where [6] appears, read: competition with CRP, read-out: Dissociation constant (KD) with 80S ribosome.

We go through five compounds from US7244712B2, “Aminoglycoside antibiotics and methods of using same” (priority 2004, dated 2007).

Read-outs that look alike come from different tables or passages of the source.

With “5-carboxytetramethyl rhodamine-labeled tobramycin [CRT]”, the Kd worked out at 190 ± 11 nM at RNA aptamer J6f1, D-RNA (direct binding of fluorescent tracer CRT, read-out: Dissociation constant of CRT complex with D-J6f1) and 200 ± 28 nM on RNA aptamer J6f1, L-RNA (direct binding of fluorescent tracer CRT, read-out: Dissociation constant of CRT complex with L-J6f1).
Turning to `NCC1OC(OC2C(N)CC(N)C(O)C2O)C(N)C(O)C1O` (single isomer, unassigned) [4-Isomer of L-Neamine (ent-3), 4-isomer of L-Neamine], the values for the Kd at 70S ribosome (setting [5]) and at 80S ribosome (setting [6]) were 6400 ± 870 nM and 33000 ± 5840 nM, respectively.
Take “5-carboxytetramethyl rhodamine-labeled paromomycin [CRP]”: the Kd stood at 170 ± 17.5 nM in assay [1] (direct binding of fluorescent tracer CRP, read-out: Dissociation constant of CRP complex with D-B); 224 ± 22.6 nM in assay [2] (direct binding of fluorescent tracer CRP, read-out: Dissociation constant of CRP complex with L-B); 1360 ± 180 nM in assay [3] (direct binding of fluorescent tracer CRP, read-out: Dissociation constant of CRP complex with D-H); 900 ± 76 nM in assay [4] (direct binding of fluorescent tracer CRP, read-out: Dissociation constant of CRP complex with L-H); 3.7 ± 1.1 nM at 70S ribosome (direct binding of CRP, read-out: Dissociation constant (Kd) of CRP with 70S Ribosome); 3.2 ± 0.9 nM at 80S ribosome (direct binding of CRP, read-out: Dissociation constant (Kd) of CRP with 80S Ribosome).
As to `NC[C@H]1O[C@H](O[C@H]2[C@H](O)[C@@H](O[C@H]3O[C@H](CO)[C@@H](O)[C@H](N)[C@H]3O)[C@H](N)C[C@@H]2N)[C@H](N)C[C@@H]1O` [Tobramycin], the Kd in assay [1] (competition with CRP, read-out: Dissociation constant of aminoglycoside complex with D-B) amounted to 1400 ± 240 nM; in assay [2] (competition with CRP, read-out: Dissociation constant of aminoglycoside complex with L-B), 4390 ± 370 nM; in assay [3] (competition with CRP, read-out: Dissociation constant of aminoglycoside complex with D-H), 1570 ± 210 nM; in assay [4] (competition with CRP, read-out: Dissociation constant of aminoglycoside complex with L-H), 3220 ± 260 nM; at RNA aptamer J6f1, D-RNA (competition with CRT, read-out: Dissociation constant of aminoglycoside complex with D-J6f1), 5.2 ± 0.42 nM; on RNA aptamer J6f1, D-RNA (read-out: KD of tobramycin with RNA aptamer J6f1) it was 5 nM. Further, the Kd on RNA aptamer J6f1, L-RNA (competition with CRT, listed as tobramycin, read-out: Dissociation constant of aminoglycoside complex with L-J6f1) worked out at 2200 nM; on RNA aptamer J6f1, L-RNA (competition with CRT, read-out: Dissociation constant of aminoglycoside complex with L-J6f1), 2180 ± 230 nM; on 70S ribosome (setting [5]), 1760 ± 380 nM; at 80S ribosome (setting [6]) it was 3690 ± 310 nM.
Take `NCC1OC(OC2C(O)C(N)CC(N)C2O)C(N)C(O)C1O` [5-Isomer of D-Neamine (2), 5-isomer of D-Neamine]: the Kd turned out to be 910 ± 130 nM on 70S ribosome (setting [5]) and 2220 ± 110 nM on 80S ribosome (setting [6]).
